Data reported in patent US11548939B2, “Therapeutic combinations using IGF1R pathway inhibitors, and methods to predict anti-IGF1R therapeutic efficacy” (UNIVERSITY OF PITTSBURGH-OF THE COMMONWEALTH SYSTEM OF …, priority 2018, dated 2023).

Experiments:
SUM44PE ILC cells = assay: Synergy measurement (Chou-Talalay combination index), CellTiter Glo viability, 96-well ULA plates, 6 days; conditions: for CI: ED75 / CI: ED90: SUM44PE, drug in combination with ICI 182,780, mean ± SEM, 3 independent experiments
Experimental: SUM44PE ILC cells were plated into 96-well ULA plates and treated for 6 days with increasing doses of OSI-906 (FIG. 10A, 10B), BMS-754807 (FIG. 10C, 10D), or BEZ235 (FIG. 10E, 10F) in combination with increasing doses of ICI 182,780. The dose response curves (FIG. 10A, 10C, 10E) and heat maps (FIG. 10B, 10D, 10F) shown indicate inhibition of cell viability (CellTiter Glo).
For synergy experiments, SUM44PE and MDA-MB-134 cells were plated in 96-well ULA plates (18,000 cells/well) in 100 μl of media/well. […] Synergy was calculated using the Median-Effect Principle and Combination Index-Isobologram Theorem (Chou-Talalay)^27. Combination index values for ED50, ED75, ED90 are shown as a mean±SEM from n=3 independent experiments.
Synergy was measured using the Median-Effect Principle and Combination-Index Isoblogram Theorem. […] Values are shown +/−SEM from 3 independent experiments each with n=2 biological replicates. CI values <1 indicate a synergistic drug interaction.

[1] = test system: MDA-MB-134 (MM134) ILC cells; assay: as above; conditions: for CI: ED75 / CI: ED90: MM134, drug in combination with ICI 182,780, mean ± SEM, 3 independent experiments
Experimental: MDA-MB-134 ILC cells were plated into 96-well ULA plates and treated for 6 days with increasing doses of OSI-906 (FIG. 11A, 11B), BMS-754807 (FIGS. 11C, 11D), or BEZ235 (FIGS. 11E, 11F) in combination with increasing doses of ICI 182,780. The dose response curves (FIGS. 11A, 11C, 11E) and heat maps (FIGS. 11B, 11D, 11F) shown indicate inhibition of cell viability (CellTiter Glo). Representative experiment shown; n=3 each with 2 biological replicates per combination of doses.
Plates (2D and ultra-low attachment [ULA; Corning #3474]) were collected on day 6 and viability was measured using CellTiter Glo Viability assay (Promega #G7572). […] For synergy experiments, SUM44PE and MDA-MB-134 cells were plated in 96-well ULA plates (18,000 cells/well) in 100 μl of media/well. […] Synergy was calculated using the Median-Effect Principle and Combination Index-Isobologram Theorem (Chou-Talalay)^27. Combination index values for ED50, ED75, ED90 are shown as a mean±SEM from n=3 independent experiments.
Synergy was measured using the Median-Effect Principle and Combination-Index Isoblogram Theorem. […] Values are shown +/−SEM from 3 independent experiments each with n=2 biological replicates.

MCF-7 cells = assay: Dose response growth assay (CellTiter Glo) in cells transfected with SCR or CDH1 siRNA; type: cell-based; conditions: 6 days
Source text: The CellTiter Glo assay was used to assess cell viability (relative luminescence).
CellTiter Glo assay was used to assess cell viability (relative luminescence).

MM134 xenograft tumor = assay: ILC xenograft tumor ex vivo explant culture, Ki67 staining; type: cell-based, human; conditions: 1 μM, 72 hours, vehicle 47%, p=0.002
Experimental: (§1) FIGS. 12A, 12B, 12C, 12D, 12E and 12F show IGF1R inhibition reduces Ki67 staining in ILC tumor ex vivo culture. MM134 (FIGS. 12A, 12B, and 12C) and BCK4 (FIGS. 12D, 12E, and 12F) xenograft tumors were harvested from immunocompromised mice, minced into 1-2 mm^3 tumor chunks and then plated on gelatin sponges in 12-well plate containing 1.5 mL media. Media was treated with DMSO Vhc (FIGS. 12A and 12D) or 1 μM […] (FIGS. 12B and 12E) for 72 hours. Tumor pieces were harvested by FFPE and stained for Ki67 as a marker of proliferation. Staining was quantified for MM134 (FIG. 12C) and BCK4 (FIG. 12F) cells by counting all clearly defined nuclei in 20× images. Statistical difference was assessed using a Student's t-test (p<0.05; n=3-6). […] Nuclei were quantified by counting all clearly defined nuclei within each tissue section (n=3-6). […]

BCK4 xenograft tumor = assay: as above; type: cell-based; conditions: 1 μM, 72 hours, vehicle 25%, p=0.005
Experimental: as §1

ZR75.1 cells = assay: Dose response growth assay (CellTiter Glo) in cells transfected with SCR or CDH1 siRNA; type: cell-based; conditions: 6 days
Source text: FIGS. 5A and 5B show knockdown of E-cadherin increases sensitivity to IGF1R inhibition in breast cancer cells. ZR75.1 cells were reverse transfected with SCR or CDH1 siRNA and seeded into 96-well 2D (FIG. 5A) or ULA (FIG. 5B) plates and treated with OSI-906 for 6 days. CellTiter Glo assay was used to assess cell viability (relative luminescence).

| Structure (SMILES) | CI: ED75 (SUM44PE ILC cells) | CI: ED90 (SUM44PE ILC cells) | CI: ED75 [1] | CI: ED90 [1] | viability of siCDH1 cells compared to siSCR cells in response to treatment (MCF-7 cells; 2D growth condition) | viability of siCDH1 cells compared to siSCR cells in response to treatment (MCF-7 cells; ULA growth condition) | Ki67 positive nuclei (MM134 xenograft tumor) | Ki67 positive nuclei (BCK4 xenograft tumor) | CI: ED75 (SUM44PE ILC cells; listed as BMS) | CI: ED90 (SUM44PE ILC cells; listed as BMS) | difference in EC50 between siSCR and siCDH1 cells (MCF-7 cells; 2D and ULA (FIG. 6)) | minimum dose reduction index (DRI) for ICI (SUM44PE ILC cells; SUM44PE cells, all drug combinations (OSI, BMS, BEZ), at the EC50) | minimum dose reduction index (DRI) for ICI ([1]; MM134 cells, all drug combinations (OSI, BMS, BEZ), at the EC50) | viability of siCDH1 cells compared to siSCR cells in response to treatment (ZR75.1 cells; 2D growth condition) | viability of siCDH1 cells compared to siSCR cells in response to treatment (ZR75.1 cells; ULA growth condition) |
| --- | --- | --- | --- | --- | --- | --- | --- | --- | --- | --- | --- | --- | --- | --- | --- |
| Cn1c(=O)n(-c2ccc(C(C)(C)C#N)cc2)c2c3cc(-c4cnc5ccccc5c4)ccc3ncc21 [BEZ235, 4-[2,3-dihydro-3-methyl-2-oxo-8-(3-quinolinyl)-1H-imidazo[4,5-c]quinolin-1-yl]-α,α-dimethyl-benzeneacetonitrile] | 0.401 ± 0.12 | 0.425 ± 0.12 | 0.547 ± 0.13 | 2.885 ± 1.34 |  |  |  |  |  |  |  |  |  |  |  |
| C[C@@]1(C(=O)Nc2ccc(F)nc2)CCCN1c1nc(Nc2cc(C3CC3)[nH]n2)c2cccn2n1 [BMS-754807, (2S)-1-[4-[(5-Cyclopropyl-1H-pyrazol-3-yl)amino]pyrrolo[2,1-f][1,2,4]triazin-2-yl]-N-(6-fluoro-3-pyridinyl)-2-methyl-2-Pyrrolidinecarboxamide] | 0.081 ± 0.04 | 0.099 ± 0.04 | 0.230 ± 0.04 | 0.667 ± 0.15 | no significant difference | decreased viability | 22% | 11% | 0.081 | 0.099 |  |  |  |  |  |
| C[C@]12CC[C@@H]3c4ccc(O)cc4C[C@@H](CCCCCCCCC[S+]([O-])CCCC(F)(F)C(F)(F)F)[C@H]3[C@@H]1CC[C@@H]2O (stereo partly drawn) [ICI 182,780, 7α,17β-[9-[(4,4,5,5,5-Pentafluoropentyl)sulfinyl]nonyl]estra-1,3,5(10)-triene-3,17-diol] |  |  |  |  |  |  |  |  |  |  | no statistical difference in EC50 | ≥ 8 fold | ≥ 2 fold |  |  |
| C[C@]1(O)C[C@@H](c2nc(-c3ccc4ccc(-c5ccccc5)nc4c3)c3c(N)nccn32)C1 [OSI-906, cis-3-[8-amino-1-(2-phenyl-7-quinolinyl)imidazo[1,5-a]pyrazin-3-yl]-1-methyl-cyclobutanol] | 0.250 ± 0.10 | 0.398 ± 0.22 | 0.449 ± 0.18 | 0.808 ± 0.48 | significantly decreased viability | significantly decreased viability |  |  |  |  |  |  |  | not in the 2D growth condition | significantly decreased viability |
